Experiment: human clinical trial of lung delivery by inhalation of [99mTc]DTPA aerosol from the nebuliser
Assay type: in vivo
Settings: for Left lung dose / Right lung dose / Total lung dose: inhalation via described nebuliser, unadjusted
Source text: Nebulisers in accordance with the described embodiments have been subject to human clinical trials to determine efficiency of delivery of active agents to the lungs by inhalation using Technetium-99m DTPA aerosol ([^99mTc]DTPA aerosol).

Left lung dose (Volunteer 1): 7.15 MBq
Right lung dose (Volunteer 1): 8.25 MBq
Total lung dose (Volunteer 1): 15.4 MBq
Left lung dose (Volunteer 2): 25.2 MBq
Right lung dose (Volunteer 2): 27.1 MBq
Total lung dose (Volunteer 2): 52.3 MBq
Left lung dose (Volunteer 3): 22.2 MBq
Right lung dose (Volunteer 3): 21.9 MBq
Total lung dose (Volunteer 3): 44.1 MBq
Left lung dose (Volunteer 4): 23.3 MBq
Right lung dose (Volunteer 4): 26.6 MBq
Total lung dose (Volunteer 4): 49.9 MBq
Substance: Technetium-99m DTPA [[^99mTc]DTPA aerosol]
efficiency of delivery to the lungs by inhalation (human clinical trials, initial results): effective delivery of nebulised active agent to the target tissue

— patent US20220401662A1, “ACOUSTIC NEBULISER FOR DELIVERY OF ACTIVE AGENTS” (Royal Melbourne Institute of Technology, priority 2020, published 2022)
